Measurements as given in patent US12398139B2, “Modulators of AMPA receptor signaling” (Centre for Addiction and Mental Health, priority 2019, dated 2025).

Experiments:
[1] = test system: HEK-293 cells expressing GAPDH and GluR2; test: AMPA mediated cell-death assay (CellTox Green Cytotoxicity Assay); format: cell-based; conditions: Homo sapiens, HEK293, AMPA 500 μM, CTZ 100 μM, CellTox Green fluorescence, read-out: Potency, inhibition of AMPA-mediated neurotoxicity (IC50, concentration at which 50% of cell death was prevented)
Description: The ability of compounds to inhibit AMPA-mediated neurotoxicity was determined using the CellTox™ Green Cytotoxicity Assay (G8743) kit from Promega. In this assay, GAPDH and GluR2 are expressed in HEK-293 cells. AMPA (500 μM) was added to induce an AMPAR-mediated cell death signalling cascade. This is initiated by the GAPDH-GluR2 complex formation followed by the nuclear translocation of the complex, where it activates the p53-mediated cell death pathway. The presence of a compound which can block dimerization of GAPDH and GluR2 will prevent the nuclear translocation and the cell death and, thus this assay is an effective measure of the ability of a compound to prevent AMPA-mediated neurotoxicity and thus show therapeutic benefit in the treatment of MS.
The assay was performed as per the manufacture's instruction. Briefly, 293 cells stably expressing GluR1 and GluR2VENUS were transfected with pcDNA-RluC-GAPDH. AMPA (500 μM) were added to induce the cell death. CTZ (100 μM) was added to prevent AMPAR desensitization. Candidate molecules were added before the AMPA treatment to test its protective effect. Untreated cells and AMPA treated group were used as negative and positive control respectively. CellTox™ Green Reagent (˜5×) was then added to achieve a final concentration of 1× and cells were incubated at room temperature for 15 minutes (shielded from ambient light). The fluorescence intensity at 485-500 nmEx/520-530 nmEm was then measured and calculated as the percentage value of the positive control. The concentration at which 50% of cell death was prevented (IC50) was determined for each compound.
The potency was measured using the cell death assay described above.

[2] = Rat liver microsomal stability assay; format: in vitro ADME; conditions: both sexes, pooled rat liver microsomes, pH 7.4; rat liver microsomes 0.5 mg/mL, 3 μM compound, NADPH, 37° C., 45 min; read-out: T1/2, rat liver microsomal stability
Description: (§1) Metabolic stability of 2-pyrrolopyrazoles derivatives was measured by determination of the rate of compound disappearance when incubated in the presence of human or rat liver microsomes. Liver microsomes are prepared from the endoplasmic reticulum of hepatocytes and are the primary source of the most important enzymes (cytochrome P450) involved in drug metabolism. Study of drug stability in the presence of liver microsomes is accepted as a valuable model permitting rapid prediction of in vivo drug stability.
(§2) Human or rat liver microsomes were obtained from a commercial source. Test compounds (3 μM) were incubated with pooled liver microsomes (male and female). Samples were incubated for a 45 minute period and removed at 5 time points and test compounds were analyzed by LC-MS/MS
(§3) Microsomes (final protein concentration 0.5 mg/mL), 0.1 M phosphate buffer pH 7.4, and test compound (final concentration 3 μM; diluted from 10 mM stock solution to give a final DMSO concentration of 0.25%) were incubated at 37° C. prior to the addition of NADPH (final concentration 1 mM) to initiate the reaction. The final incubation volume was 25 μL. A control incubation was included for each compound tested, where 0.1 M phosphate buffer pH 7.4 was added instead of NADPH. The control compounds testosterone and 7-hydroxycoumarin were included in each experiment and all incubations were performed singularly for each compound.
(§4) Each compound was incubated for 0, 5, 15, 30, and 45 minutes. The control (minus NADPH) was incubated for 45 minutes only. The reactions were stopped by the addition of 50 μL methanol containing internal standard at the appropriate time points. The incubation plates were centrifuged at 2500 rpm for 20 minutes at 4° C. to precipitate the protein.
(§5) Following protein precipitation, the sample supernatants were combined in cassettes of up to 4 compounds and analysed using standard LC-MS/MS conditions.
(§6) From a plot of the natural logarithm of the peak area ratio (i.e., the ratio of compound peak area: internal standard peak area) against time, the gradient of the line was determined. Subsequently, half-life and intrinsic clearance were calculated using the equations below: Eliminated rate constant (k)=(−gradient). Half-life (t1/2) (min)=[…]. Intrinsic Clearance (CLint) (μL/min/[…])=(V×0.693)/t1/2. wherein V=Incubation volume (μL/mg microsomal protein).
(§7) Biological half-life values (t1/2) were determined for several 2-pyrrolopyrazoles, as well as the closely-related reference 1-pyrrolopyrazole, using the human liver microsomal stability assay described above.

[3] = Human liver microsomal stability assay; format: in vitro ADME; conditions: both sexes, pooled human liver microsomes, pH 7.4; human liver microsomes 0.5 mg/mL, 3 μM compound, NADPH, 37° C., 45 min; read-out: T1/2, human liver microsomal stability
Description: as §1, §2, §3, §4, §5, §6, §7

[4] = target: T1, GluR2/GAPDH complex (Homo sapiens, UniProt P42262); test: Surface plasmon resonance target engagement assay (competitive GluR2-Venus affinity with GAPDH); conditions: SPR, captured GluR2-VENUS, 100 nM GAPDH peptide, compound top concentration 10 μM; read-out: Potency, GluR2 Binding Affinity (competitive inhibition of GluR2-GAPDH interaction)
T1 construct: host or cells: HEK293 cells stably transfected with GluR2-VENUS (lysate)
Description: This is one of the most commonly used techniques to study modulation of protein-protein interactions by small molecule ligands, providing real-time measurement of binding affinities and association/dissociation kinetics of complexes (compound/protein) in a label-free environment. The ability of our lead compound to disrupt the interaction of GluR2/GAPDH complex was measured by the binding affinity. Compounds were analyzed for competitive GluR2-Venus protein affinity (with GAPDH recombinant protein) using a Reichert 2SPR system. The surface was first charged with nickel (500 μM NiCl2 in HBS-P buffer for 300 s at a flow rate of 5 μL/min). The dextran surface was then activated with a 1:1 mixture of N-ethyl-N-dimethylaminopropylcarbodiimide (EDC) and N-hydroxysuccinimide (NHS) on line for final concentrations of EDC and NHS of 37.5 mg/mL and 5.8 mg/mL, respectively, for 420 s at a flow rate of 25 μL/min. Anti-VENUS antibody was first immobilized by capture onto a 500 KDa CM Dextran sensor chip (Reichert), proceeded by activation of the carboxymethylated dextran surface for mild amine coupling, followed by a final blocking injection of 1 M ethanolamine, pH 8.5. GluR2-VENUS (lysate of HEK293 cells stably transfected with GluR2-VENUS) was then captured for 900 s at a flow rate of 25 μL/min followed by a final blocking injection of 2% BSA, for 300 s at a flow rate of 5 μL/min.
The surface plasmon resonance affinity assay was carried out in a PBS buffer consisting of 0.05% Tween 20. For affinity measurements, compound solutions were prepared using ten three-fold serial dilutions in running buffer from a 10 μM top concentration (prepared from DMSO stocks) along with a zero (running buffer) control, mixed with 100 nM GAPDH peptide (Sigma Aldrich). A flow rate of 30 μl/min was used with a 420 s contact time (using high performance injection parameters) followed by a 120 s dissociation phase. Results were analyzed by subtracting the signals of the reference surface from the signals for the protein-bound surfaces and performing a solvent correction. Competitive binding responses were normalized throughout the screen to the percentage of inhibition of the respective small molecule compound. Three independent experiments were performed.
The binding affinity was measured using the surface plasmon resonance assay described above.

T1 sequence (P42262 25-883, species assumed, one chain of several): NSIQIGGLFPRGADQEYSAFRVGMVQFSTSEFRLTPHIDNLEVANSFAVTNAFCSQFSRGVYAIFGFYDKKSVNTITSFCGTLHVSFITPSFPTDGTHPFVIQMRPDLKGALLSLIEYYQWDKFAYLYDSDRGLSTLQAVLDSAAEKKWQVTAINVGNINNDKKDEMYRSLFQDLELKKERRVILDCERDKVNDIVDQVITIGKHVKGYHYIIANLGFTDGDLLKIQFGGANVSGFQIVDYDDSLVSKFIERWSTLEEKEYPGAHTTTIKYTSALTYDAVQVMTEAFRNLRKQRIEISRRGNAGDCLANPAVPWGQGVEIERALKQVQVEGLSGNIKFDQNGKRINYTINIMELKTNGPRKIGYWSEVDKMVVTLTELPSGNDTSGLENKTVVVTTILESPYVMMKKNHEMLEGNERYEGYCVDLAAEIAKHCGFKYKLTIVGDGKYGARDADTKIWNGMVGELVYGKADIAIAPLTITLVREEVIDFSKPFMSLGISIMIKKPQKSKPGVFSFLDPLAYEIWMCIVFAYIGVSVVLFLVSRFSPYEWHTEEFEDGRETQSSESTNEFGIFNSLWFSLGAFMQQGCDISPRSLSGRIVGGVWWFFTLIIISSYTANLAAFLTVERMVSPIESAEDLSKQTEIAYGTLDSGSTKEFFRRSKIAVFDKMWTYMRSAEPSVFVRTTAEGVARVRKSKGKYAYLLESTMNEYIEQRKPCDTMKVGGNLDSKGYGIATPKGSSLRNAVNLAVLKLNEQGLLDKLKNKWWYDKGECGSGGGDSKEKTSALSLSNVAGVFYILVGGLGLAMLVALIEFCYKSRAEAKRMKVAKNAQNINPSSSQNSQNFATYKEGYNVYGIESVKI

half-life at 3 μM [2] | half-life at 3 μM [3] | IC50 [4] | SMILES | IC50 [1]
< 1 min | 7 min | – | CN(C(=O)c1ccnc(N2Cc3cn(Cc4ccc(F)cc4)nc3C2)n1)C1CCCC1 [Compound 226, N-Cyclopentyl-2-(2-(4-fluorobenzyl)-2,6-dihydropyrrolo[3,4-c]pyrazol-5(4H)-yl)-N-methylpyrimidine-4-carboxamide] | 0.042 µM
< 1 min | – | – | CN(C(=O)c1ccnc(N2Cc3cn(Cc4ccc(F)cc4)nc3C2)n1)C1CCCCC1 [Compound 230, N-Cyclohexyl-2-(2-(4-fluorobenzyl)-2,6-dihydropyrrolo[3,4-c]pyrazol-5(4H)-yl)-N-methylpyrimidine-4-carboxamide] | 0.087 µM
– | 749 min | 0.033 µM | CN(C)C(=O)c1ccnc(N2Cc3cn(Cc4ccc(F)cc4)nc3C2)n1 [Compound 210, 2-(2-(4-Fluorobenzyl)-2,6-dihydropyrrolo[3,4-c]pyrazol-5(4H)-yl)-N,N-dimethylpyrimidine-4-carboxamide] | 0.082 µM
– | – | 0.139 µM | Cc1ccc(Cn2cc3c(n2)CN(c2cncc(C(=O)N(C)C)n2)C3)cc1 [Compound 234, N,N-Dimethyl-6-(2-(4-methylbenzyl)-2,6-dihydropyrrolo[3,4-c]pyrazol-5(4H)-yl)pyrazine-2-carboxamide] | 0.114 µM
– | – | 0.088 µM | COc1ccc(Cn2cc3c(n2)CN(c2cncc(C(=O)N(C)C)n2)C3)cc1 [Compound 232, 6-(2-(4-Methoxybenzyl)-2,6-dihydropyrrolo[3,4-c]pyrazol-5(4H)-yl)-N,N-dimethylpyrazine-2-carboxamide] | 0.054 µM
– | – | 0.099 µM | O=C(NC1CCCCC1)c1ccnc(N2Cc3cn(Cc4ccc(F)cc4)nc3C2)n1 [Compound 209, N-Cyclohexyl-2-(2-(4-fluorobenzyl)-2,6-dihydropyrrolo[3,4-c]pyrazol-5(4H)-yl)pyrimidine-4-carboxamide] | 0.066 µM
– | – | 0.024 µM | O=C(NC1CCCCC1)c1cncc(N2Cc3cn(Cc4ccc(F)cc4)nc3C2)n1 [Compound 214, N-Cyclohexyl-6-(2-(4-fluorobenzyl)-2,6-dihydropyrrolo[3,4-c]pyrazol-5(4H)-yl)pyrazine-2-carboxamide] | 0.046 µM
– | – | 0.086 µM | CCN(CC)C(=O)c1cncc(N2Cc3cn(Cc4ccc(F)cc4)nc3C2)n1 [Compound 231, N,N-Diethyl-6-(2-(4-fluorobenzyl)-2,6-dihydropyrrolo[3,4-c]pyrazol-5(4H)-yl)pyrazine-2-carboxamide] | 0.25 µM
– | – | 0.0024 µM | O=C(c1ccnc(N2Cc3cn(Cc4ccc(F)cc4)nc3C2)n1)N1CCCCC1 [Compound 244, (2-(2-(4-Fluorobenzyl)-2,6-dihydropyrrolo[3,4-c]pyrazol-5(4H)-yl)pyrimidin-4-yl)(piperidin-1-yl)methanone] | 0.0024 µM
– | – | 0.102 µM | CN(C)C(=O)c1cncc(N2Cc3cn(CC4CCCCC4)nc3C2)n1 [Compound 238, 6-(2-(Cyclohexylmethyl)-2,6-dihydropyrrolo[3,4-c]pyrazol-5(4H)-yl)-N,N-dimethylpyrazine-2-carboxamide] | 0.167 µM
– | – | 0.014 µM | O=C(NCC(F)(F)F)c1cccc(N2Cc3cn(Cc4ccc(F)cc4)nc3C2)c1 [Compound 219, 3-(2-(4-Fluorobenzyl)-2,6-dihydropyrrolo[3,4-c]pyrazol-5(4H)-yl)-N-(2,2,2-trifluoroethyl)benzamide] | 0.028 µM
14 min | – | 0.008 µM | O=C(c1cccc(N2Cc3cn(Cc4ccc(F)cc4)nc3C2)c1)N1CCCCC1 [Compound 242, (3-(2-(4-Fluorobenzyl)-2,6-dihydropyrrolo[3,4-c]pyrazol-5(4H)-yl)phenyl)(piperidin-1-yl)methanone] | 0.079 µM
– | – | > 1 µM | CN(C)C(=O)c1cncc(N2Cc3cnn(Cc4ccc(F)cc4)c3C2)n1 [REF, reference compound] | 0.2 µM
– | > 1000 min | 0.091 µM | O=C(NC1CCCCC1)c1cccc(N2Cc3cn(Cc4ccc(F)cc4)nc3C2)c1 [Compound 216, N-Cyclohexyl-3-(2-(4-fluorobenzyl)-2,6-dihydropyrrolo[3,4-c]pyrazol-5(4H)-yl)benzamide] | 0.057 µM
– | – | 0.02 µM | N#Cc1ccnc(N2Cc3cn(Cc4ccc(F)cc4)nc3C2)n1 [Compound 241, 2-(2-(4-Fluorobenzyl)-2,6-dihydropyrrolo[3,4-c]pyrazol-5(4H)-yl)pyrimidine-4-carbonitrile] | 0.072 µM
– | – | 0.148 µM | CN(C)C(=O)c1cccc(N2Cc3cn(CC4CC4)nc3C2)c1 [Compound 247, 3-(2-(Cyclopropylmethyl)-2,6-dihydropyrrolo[3,4-c]pyrazol-5(4H)-yl)-N,N-dimethylbenzamide] | 0.036 µM
– | – | 0.026 µM | N#Cc1cccc(N2Cc3cn(Cc4ccc(F)cc4)nc3C2)c1 [Compound 240, 3-(2-(4-Fluorobenzyl)-2,6-dihydropyrrolo[3,4-c]pyrazol-5(4H)-yl)benzonitrile] | 0.035 µM
– | – | 0.13 µM | O=C(c1cccc(N2Cc3cn(Cc4ccc(F)cc4)nc3C2)c1)N1CCCC1 [Compound 243, (3-(2-(4-Fluorobenzyl)-2,6-dihydropyrrolo[3,4-c]pyrazol-5(4H)-yl)phenyl)(pyrrolidin-1-yl)methanone] | 1.15 µM
